Test results taken from PubChem BioAssay AID1963441 (Molecular Pharmacology Branch, DTP, NCI, 2024).

Test system: NCI-H1876 complex spheroid growth, % test/control
Assay: Anticancer human tumor NCI-H1876 cell line growth inhibition [Asc];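 further: compound exposure lasted 7 days starting three days after seeding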;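 on viability, T/C: 100% = DMSO vehicle control wells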
Details: for IC50: curve of first compound; for viability, T/C: stronger effect = lower value
Method: Multicellular complex tumor spheroid response to apoptosis pathway targeting inhibitors Alrizomadlin, Pelcitoclax, and Dasminapant in combination with a variety of drugs and investigational agents in selected tumor cell lines
The MDM2 inhibitor alrizomadlin, the Bcl-2/Bcl-xL inhibitor pelcitoclax, and the IAPs inhibitor dasminapant were evaluated both individually and in combination with standard of care and investigational anticancer small molecules within a complex spheroid model of solid tumors. . Complex spheroids include a stromal component modeled by human endothelial cells (HUVEC) and fibroblasts modeled by human mesenchymal stem cells (MSCs). The concentration ranges selected for each drug and investigational agent were based upon clinically achievable concentrations if the clinical Cmax of the agent was known.
Compounds. The drugs and investigational agents: alrizomadlin (APG-115; NSC831270), pelcitoclax (APG-1252; NSC835773), dasminapant (APG-1387;NSC834197), TAK-243 (NSC785004), copanlisib (NSC809693), olaparib (NSC753686), talazoparib (NSC767125), cobimetinib (NSC 768068), eltanexor (KPT-8602, NSC 794443), abemaciclib (NSC 768073), sotorasib (NSC818433), adagrasib (NSC 831453), MRTX-1133 (NSC 836407), Iadademestat (ORY1001, NSC 806812), and RMC-4630 (NSC839698), were obtained from the NCI Developmental Therapeutics Program Chemical Repository. The FDA-approved anticancer drug set is available from the Developmental Therapeutics Program at https://dtp.cancer.gov/organization/dscb/obtaining/available plates.htm. […] The stock solutions were prepared in dimethyl sulfoxide (DMSO, Sigma-Aldrich, St. Louis, MO, cat. D2650) at 800-fold the tested concentration and stored at -70 degrees C prior to their use. All drugs and investigational agents were tested over a range starting from a high concentration at or near the clinical Cmax and decreasing in half-log increments. If the clinical Cmax for an agent had not been determined, the highest concentration tested was 10 microM.
The patient-derived cancer (PDC) cell lines include five colon adenocarcinomas: 186277-243-T-J2-PDC, 616215-338-R-J1-PDC, 439559-082-T-J2-PDC, 463943-066-T-J2-PDC, and 519858-162-T-J1-PDC; three pancreatic carcinomas: 323965-272-R-J2-PDC, 521955-158-R6-J3-PDC, and 521955-158-R2-J5-PDC; two uterine sarcomas: 327498-152-R-J2-PDC and 993429-296-R-J1-PDC; two rhabdomyosarcomas: 755483-174-R-J1-PDC and 772245-204-R-J1-PDC; two soft tissue sarcomas: 126254-015-R-J1-PDC and 494315-158-R-J1-PDC; two malignant fibrous histiocytomas: 317291-083-R-J1-PDC and 596521-263-R-J1-PDC; two breast carcinomas: 171881-019-R-J1-PDC and 885512-296-R-J2-PDC; and one ovarian carcinoma: 6556581-035-R-J-PDC were obtained from the NCI PDMR, (https://pdmr.cancer.gov). The established cell lines HSSY-2 synovial sarcoma (RRID:CVCL 8719), SYO-1 synovial sarcoma (RRID:CVCL_7146), MPNST malignant peripheral neural sheath tumor were obtained from the Sloan Kettering Institute. The following established cell lines were purchased from the American Type Culture Collection (ATCC, Manassas, VA), Sor the received from the NCI repository:, PANC-1 pancreatic carcinoma (CRL-1469, RRID:CVCL_0480), OVCAR-5 ovarian carcinoma (RRID:CVCL_1628), OVCAR-8 ovarian carcinoma (RRID:CVCL_1629), , MCF-7 breast carcinoma (CRL-12584, RRID:CVCL_0031), MDA-MB-231 breast carcinoma (CRL-12532, RRID:CVCL_0062), NCI-H1876 small cell lung carcinoma (CRL-5902, RRID:CVCL_1503), NCI-H510A small cell lung carcinoma (HTB-184, RRID:CVCL_1565), NCI-H1417 (CRL-5869, RRID:CVCL_1469), and NCI-H196 small cell lung carcinoma (CRL-5823, RRID:CVCL_1509). Dr. Peter Houghton (Greehey Children's Cancer Research Institute, University of Texas Health Science Center, San Antonio, TX) provided Rh-18 rhabdomyosarcoma (RRID:CVCL_1659). Pooled donor human umbilical vein endothelial cells (HUVEC, Lonza, cat. CC-2519) and human mesenchymal stem cells (hMSC, Lonza, cat. PT-2501) were purchased from Lonza (Walkersville, MD).
Cell Culture. […]

[1] = second compound 0.0316 µM, first compound 0.0316 µM
[2] = second compound 0.0316 µM, first compound 0.1 µM
[3] = second compound 0.0316 µM, first compound 0.316 µM
[4] = second compound 0.0316 µM, first compound 1 µM
[5] = second compound 0.0316 µM, first compound 3.16 µM
[6] = second compound 0.0316 µM, first compound 10 µM
[7] = second compound 0.1 µM, first compound 0.0316 µM
[8] = second compound 0.1 µM, first compound 0.1 µM
[9] = second compound 0.1 µM, first compound 0.316 µM
[10] = second compound 0.1 µM, first compound 1 µM
[11] = second compound 0.1 µM, first compound 3.16 µM
[12] = second compound 0.1 µM, first compound 10 µM
[13] = second compound 0.316 µM, first compound 0.0316 µM
[14] = second compound 0.316 µM, first compound 0.1 µM
[15] = second compound 0.316 µM, first compound 0.316 µM
[16] = second compound 0.316 µM, first compound 1 µM
[17] = second compound 0.316 µM, first compound 3.16 µM
[18] = second compound 0.316 µM, first compound 10 µM
[19] = second compound 1 µM, first compound 0.0316 µM
[20] = second compound 1 µM, first compound 0.1 µM
[21] = second compound 1 µM, first compound 0.316 µM
[22] = second compound 1 µM, first compound 1 µM
[23] = second compound 1 µM, first compound 3.16 µM
[24] = second compound 1 µM, first compound 10 µM

Compound: O=C(c1cc(Cc2n[nH]c(=O)c3ccccc23)ccc1F)N1CCN(C(=O)C2CC2)CC1 + Cc1c(S(C)(=O)=O)c(-c2cc(F)cc(N3CCN(c4ccc(NS(=O)(=O)c5ccc(NC(CCN6CCC(C(=O)OCCCP(=O)(O)O)CC6)CSc6ccccc6)c(S(=O)(=O)C(F)(F)F)c5)cc4)CC3)c2)c(-c2ccc(Cl)cc2)n1C(C)C
- IC50 (second compound 0.0316 µM): > 10 µM
- IC50 (second compound 0.1 µM): > 10 µM
- IC50 (second compound 0.316 µM): > 10 µM
- IC50 (second compound 1 µM): 9.96 µM
- IC50 (second compound 3.16 µM): 8.47 µM
- IC50 (second compound 10 µM): 7.79 µM
- viability, T/C [1]: 99.6%
- viability, T/C [2]: 99.1%
- viability, T/C [3]: 92.8%
- viability, T/C [4]: 101%
- viability, T/C [5]: 97.2%
- viability, T/C [6]: 74%
- viability, T/C [7]: 100%
- viability, T/C [8]: 90.9%
- viability, T/C [9]: 98.2%
- viability, T/C [10]: 96.2%
- viability, T/C [11]: 95.9%
- viability, T/C [12]: 73.6%
- viability, T/C [13]: 90.2%
- viability, T/C [14]: 96.7%
- viability, T/C [15]: 93.5%
- viability, T/C [16]: 97.9%
- viability, T/C [17]: 96%
- viability, T/C [18]: 61.2%
- viability, T/C [19]: 111%
- viability, T/C [20]: 97.7%
- viability, T/C [21]: 90.1%
- viability, T/C [22]: 102%
- viability, T/C [23]: 99.2%
- viability, T/C [24]: 49.8%
- viability, T/C (second compound 3.16 µM, first compound 0.0316 µM): 101%
- viability, T/C (second compound 3.16 µM, first compound 0.1 µM): 94.5%
- viability, T/C (second compound 3.16 µM, first compound 0.316 µM): 97.1%
- viability, T/C (second compound 3.16 µM, first compound 1 µM): 96%
- viability, T/C (second compound 3.16 µM, first compound 3.16 µM): 86.8%
- viability, T/C (second compound 3.16 µM, first compound 10 µM): 43.6%
- viability, T/C (second compound 10 µM, first compound 0.0316 µM): 95.2%
- viability, T/C (second compound 10 µM, first compound 0.1 µM): 98.9%
- viability, T/C (second compound 10 µM, first compound 0.316 µM): 86.1%
- viability, T/C (second compound 10 µM, first compound 1 µM): 90.1%
- viability, T/C (second compound 10 µM, first compound 3.16 µM): 95.3%
- viability, T/C (second compound 10 µM, first compound 10 µM): 38.1%

Compound: C#Cc1c(F)ccc2cc(O)cc(-c3ncc4c(N5CC6CCC(C5)N6)nc(OCC56CCCN5CC(F)C6)nc4c3F)c12 (centres undefined) + CNC(C)C(=O)NC1CN(S(=O)(=O)c2cccc(S(=O)(=O)N3CCC4CCC(C(=O)NC(c5ccccc5)c5ccccc5)N4C(=O)C(NC(=O)C(C)NC)C3)c2)CCC2CCC(C(=O)NC(c3ccccc3)c3ccccc3)N2C1=O
- IC50 (second compound 0.00316 µM): > 10 µM
- IC50 (second compound 0.01 µM): > 10 µM
- IC50 (second compound 0.0316 µM): > 10 µM
- IC50 (second compound 0.1 µM): > 10 µM
- IC50 (second compound 0.316 µM): > 10 µM
- IC50 (second compound 1 µM): > 10 µM
- viability, T/C (second compound 0.00316 µM, first compound 0.0316 µM): 101%
- viability, T/C (second compound 0.00316 µM, first compound 0.1 µM): 88.2%
- viability, T/C (second compound 0.00316 µM, first compound 0.316 µM): 103%
- viability, T/C (second compound 0.00316 µM, first compound 1 µM): 90.3%
- viability, T/C (second compound 0.00316 µM, first compound 3.16 µM): 93.5%
- viability, T/C (second compound 0.00316 µM, first compound 10 µM): 86.7%
- viability, T/C (second compound 0.01 µM, first compound 0.0316 µM): 96.9%
- viability, T/C (second compound 0.01 µM, first compound 0.1 µM): 92.3%
- viability, T/C (second compound 0.01 µM, first compound 0.316 µM): 101%
- viability, T/C (second compound 0.01 µM, first compound 1 µM): 92.9%
- viability, T/C (second compound 0.01 µM, first compound 3.16 µM): 91.8%
- viability, T/C (second compound 0.01 µM, first compound 10 µM): 89.3%
- viability, T/C [1]: 105%
- viability, T/C [2]: 88.6%
- viability, T/C [3]: 101%
- viability, T/C [4]: 93.9%
- viability, T/C [5]: 102%
- viability, T/C [6]: 95.7%
- viability, T/C [7]: 106%
- viability, T/C [8]: 99.4%
- viability, T/C [9]: 104%
- viability, T/C [10]: 94.6%
- viability, T/C [11]: 94.5%
- viability, T/C [12]: 82.8%
- viability, T/C [13]: 109%
- viability, T/C [14]: 101%
- viability, T/C [15]: 89.8%
- viability, T/C [16]: 108%
- viability, T/C [17]: 107%
- viability, T/C [18]: 96%
- viability, T/C [19]: 90.3%
- viability, T/C [20]: 89.8%
- viability, T/C [21]: 98%
- viability, T/C [22]: 106%
- viability, T/C [23]: 103%
- viability, T/C [24]: 92.2%
